Oligonucleotides are written 5' to 3', each unit as a sugar letter and its base; * is a phosphorothioate linkage, no mark a phosphodiester; rarer units and linkages stand in square brackets, end groups in braces. Plain capitals give the bases only. d = 2'-deoxy (DNA)
Assays:
[1] = tested on: HT-29 human colon cancer cells; assay: HT-29 colon tumour xenograft in CD-1 nude mice; assay type: in vivo
Procedure: HT-29 human colon cancer cells (3×10^6 cells in 100 μl of PBS) were subcutaneously injected into the right flank of 6-7 weeks old female CD-1 nude mice. After the size of tumour reached an approximate volume of 50 mm^3, 4 days post tumour cell injection, mitomycin C was administered by bolus infusion into the tail vein at days 4, 11 and 18 with a dose of 3.5 mg/kg/week. Antitumour effect of mitomycin C was further compared to that of SEQ ID NO:1 in combination with mitomycin C. SEQ ID NO:1 was administered by bolus infusion into the tail vein every day at 6 mg/kg and mitomycin C was administered intravenously at days 4, 11 and 18 with a dose of 3.5 mg/kg/week, one hour after the treatments with SEQ ID NO:1. Control animals received saline alone for the same period as SEQ ID NO:1. All treatments were stopped at day 22. A day after the last treatment, tumours were excised from the animals and their weights were measured.
HT-29 human colon cancer cells (3×10^6 cells in 100 μl of PBS) were subcutaneously injected into the right flank of 5-6 week old female CD-1 nude mice. After the size of tumour reached an approximate volume of 100 mm^3, 7 days post tumour cell injection, SEQ ID NO:1 was administered by bolus infusion into the tail vein every other day at 10 mg/kg. Control animals received saline alone for the same period. Antitumour effect of SEQ ID NO:1 was further compared to that of CPT-11 alone or that of SEQ ID NO:1 in combination with CPT-11. CPT-11 was administered intraperitoneally for 5 days in a row from […] with a dose of 20 mg/kg in 100 μl saline. All treatments were stopped at day 32. A day after the last treatment, tumours were excised from the animals and their weights were measured.
HT-29 human colon cancer cells (3×10^6 cells in 100 μl of PBS) were subcutaneously injected into the right flank of 6-7 week old female CD-1 nude mice. Treatments started at day 5 post tumour cell injection, SEQ ID NO:1 and 5-FU were administered as outlined below: • Groups and treatment: • Group 1. Saline treated group: saline:0.1 ml/2 days, i.v.; • Group 2. SEQ ID NO:1 treated group: 10 mg/kg/2 days in 100 μL saline, i.v.; • Group 3. 5-FU treated group:13 mg/kg/5 days/week (one week on and one week off), i.v.; • Group 4. SEQ ID NO:1 plus 5-FU treated group.
HT-29 human colon cancer cells (3×10^6 cells in 100 μl of PBS) were subcutaneously injected into the right flank of 5-6 week old female CD-1 nude mice. Treatments started 4 days post tumour cell injection, SEQ ID NO: 1 and Capecitabine were administered as outlined below: • Group and Treatment: • Group 1: treated with 0.2 ml vehicle solution for capecitabine, o.p.; • Group 2: treated with 0.1 ml saline, i.v.; • Group 3: treated with 359 mg/kg/day×5/w Capecitabine in 0.2 ml vehicle solution, o.p.; • Group 4: treated with 10 mg/kg/2 days SEQ ID NO:1 in 0.1 ml saline i.v.; • Group 5: treated with 10 mg/kg/2 days SEQ ID NO:1 in 0.1 ml saline, i.v. plus 359 mg/kg/day×5/w capecitabine in 0.2 ml vehicle solution, o.p.

Hela 1 mM cells = assay: Sensitization to chemotherapeutics by AS-II-2229B-20, relative colony forming efficiency; assay type: cell-based, human; conditions: HeLa 1 mM
Procedure: (§1) Colony forming efficiency was determined using standard protocols. Briefly, the cells were cultured for 24 hours at 37° C. in growth medium with 10% fetal bovine serum. The cells were washed in 5 ml phosphate buffered saline, pH 7.2, once prior to lipofectin +/−oligonucleotide treatment.
(§2) The test oligonucleotides were added to cell cultures in the presence of 2.5 μg of DOTMA/DOPE (Lipofectin; Life Technologies, Inc.) for four hours. The oligonucleotide was tested at 0.2 μM unless otherwise indicated. Controls were the cultures treated with lipofectin but without the oligonucleotide. After 4 hours the medium containing the oligonucleotide was removed and washed with 5 ml of growth medium. The cells were then cultured in growth medium containing 10% fetal bovine serum for seven to ten days. Surviving cells were visualized by methylene blue staining, and colonies were scored. In some experiments cell aliquots were removed from the culture and viability was determined using the trypan blue exclusion test. Results were analyzed as percent of surviving cells compared to control cells.
(§3) Treatment of human tumour cells with very low concentrations of short antisense sequences was tested to determine if these constructs could sensitize the tumour cells to inhibitory effects of other chemotherapeutic drugs.

Hela S3 cells [2] = assay: as above; assay type: cell-based, human; conditions: HeLa S3
Procedure: as §1, §2, §3

[3] = tested on: HepG2 hepatocellular carcinoma; assay: Relative colony forming efficiency (Example 17, Table 13); assay type: cell-based, human; conditions: averages of 2-8 determinations
Summary of the method: (§4)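 Phosphorothioate antisense oligonucleotides were delivered to tumour cell cultures with 2.5 μg DOTMA/DOPE (Lipofectin) over four hours, at 0.2 μM unless otherwise indicated. Surviving colonies were stained with methylene blue and scored. Values are % inhibition of colony formation relative to lipofectin-only controls.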

A549 lung cell carcinoma = assay: as above; assay type: cell-based, human; conditions: averages of 2-8 determinations
Summary of the method: as §4

[4] = tested on: T-47D breast ductal carcinoma; assay: as above; assay type: cell-based, human; conditions: averages of 2-8 determinations
Summary of the method: as §4

[5] = tested on: H596 lung adenosquamous carcinoma cells; assay: as above; assay type: cell-based, human; conditions: averages of 2-8 determinations
Summary of the method: as §4

[6] = tested on: PC-3 prostrate cell adenocarcinoma; assay: as above; assay type: cell-based, human; conditions: averages of 2-8 determinations
Summary of the method: as §4

[7] = tested on: MDA PaCa-2 pancreatic cell carcinoma; assay: as above; assay type: cell-based, human; conditions: MIA PaCa-2 pancreatic cell carcinoma; averages of 2-8 determinations
Summary of the method: as §4

[8] = tested on: HCT116 colon cell carcinoma; assay: as above; assay type: cell-based, human; conditions: averages of 2-8 determinations
Summary of the method: as §4

[9] = tested on: T24 bladder cell carcinoma; assay: as above; assay type: cell-based, human; conditions: averages of 2-8 determinations
Summary of the method: as §4

[10] = tested on: MDA-MB-231 breast cell adenocarcinoma; assay: as above; assay type: cell-based, human; conditions: averages of 2-8 determinations
Summary of the method: as §4

Hela S3 cells [11] = assay: Relative colony forming efficiency, lipofectin +/- oligonucleotide 4 hours; assay type: cell-based, human; conditions: Hela S3 cervix carcinoma cells; averages of 2-8 determinations
Summary of the method: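 HeLa S3 cells were exposed to phosphorothioate antisense oligonucleotide (0.2 μM unless stated) with lipofectin for 4 h, then grown 7–10 days in 10% FBS medium. Methylene blue-stained colonies were counted and expressed as percent survival relative to lipofectin-only controls.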

[12] = drug 40 μM, with AS-II-2229B-20 0.02 μM
[13] = drug 40 μM, without AS-II-2229B-20
[14] = drug 60 μM, with AS-II-2229B-20 0.02 μM
[15] = drug 60 μM, without AS-II-2229B-20
[16] = drug 20 μM, with AS-II-2229B-20 0.02 μM
[17] = drug 20 μM, without AS-II-2229B-20

For `CO[C@@]12[C@H](COC(N)=O)C3=C(C(=O)C(C)=C(N)C3=O)N1C[C@@H]1N[C@@H]12` [Mitomycin C, reference compound], the “antitumour effect (tumour weight)” value ([1]; Example 12.1, mitomycin C 3.5 mg/kg/week i.v., SEQ ID NO:1 6 mg/kg every day i.v.) was “significant delay of tumour growth” and the “Tumour weight as % of saline control” value ([1]; HT-29 (colon), Mouse CD-1, Mitomycin C study) was 15%.

In the case of `CN(Cc1cnc2nc(N)nc(N)c2n1)c1ccc(C(=O)N[C@@H](CCC(=O)O)C(=O)O)cc1` [MTX, methotrexate], the “Relative colony Forming Efficiency” value (Hela 1 mM cells; [12]) is reported as 6.5 ± 5.5, the “Relative colony Forming Efficiency” value (Hela 1 mM cells; [13]) is reported as 28 ± 10 and the “Relative colony Forming Efficiency” value (Hela 1 mM cells; [14]) is reported as 3.5 ± 0.5. For the same molecule, the “Relative colony Forming Efficiency” value (Hela 1 mM cells; [15]) was 12 ± 0.5, the “Relative colony Forming Efficiency” value (Hela S3 cells [2]; [12]) was 25 ± 5 and the “Relative colony Forming Efficiency” value (Hela S3 cells [2]; [13]) was 118 ± 32. The “Relative colony Forming Efficiency” value (Hela S3 cells [2]; [14]) was 0 and the “Relative colony Forming Efficiency” value (Hela S3 cells [2]; [15]) was 116 ± 13.

For `O=C(O)C[C@H](NC(=O)CP(=O)(O)O)C(=O)O` [PALA, N-(phosphonacetyl)-L-aspartate], the “Relative colony Forming Efficiency” value (Hela 1 mM cells; [16]) was 108 ± 7.5, the “Relative colony Forming Efficiency” value (Hela 1 mM cells; [17]) was 377 ± 21 and the “Relative colony Forming Efficiency” value (Hela 1 mM cells; drug 30 μM, with AS-II-2229B-20 0.02 μM) was 101 ± 2.0. The “Relative colony Forming Efficiency” value (Hela 1 mM cells; drug 30 μM, without AS-II-2229B-20) was 311 ± 9.5, the “Relative colony Forming Efficiency” value (Hela S3 cells [2]; [16]) was 90 ± 10 and the “Relative colony Forming Efficiency” value (Hela S3 cells [2]; [17]) was 350 ± 50.

In the case of “GGCGACCCCTCACTCCAGCA (antisense dG*dG*dC*dG*dA*dC*dC*dC*dC*dT*dC*dA*dC*dT*dC*dC*dA*dG*dC*dA) [AS-II-114-20]”, the “Reduced relative colony forming efficiency, HepG2 (% inhibition of colony forming ability)” value [3] is reported as 78.72%, the “Reduced relative colony forming efficiency, A549 (% inhibition of colony forming ability)” value (A549 lung cell carcinoma) is reported as 83.51% and the “Reduced relative colony forming efficiency, T-47D (% inhibition of colony forming ability)” value [4] is reported as 90.83%. For the same molecule, the “Reduced relative colony forming efficiency, 11596 (% inhibition of colony forming ability)” value [5] was 46.3%, the “Reduced relative colony forming efficiency, PC-3 (% inhibition of colony forming ability)” value [6] was 92.66% and the “Reduced relative colony forming efficiency, MIA PaCa-2 (% inhibition of colony forming ability)” value [7] was 90.05%. The “Reduced relative colony forming efficiency, HCT116 (% inhibition of colony forming ability)” value [8] was 86.1%, the “Reduced relative colony forming efficiency, T24 (% inhibition of colony forming ability)” value [9] was 87.45% and the “Reduced relative colony forming efficiency, MDA-MB-231 (% inhibition of colony forming ability)” value [10] was 76.22%. The “Reduced relative colony forming efficiency, Hela S3 (% inhibition of colony forming ability)” value (Hela S3 cells [11]) was 79.25%.

For “CCTGTCTTCTATCTGGCACC (antisense dC*dC*dT*dG*dT*dC*dT*dT*dC*dT*dA*dT*dC*dT*dG*dG*dC*dA*dC*dC) [AS-II-1989-20]”, the “Reduced relative colony forming efficiency, HepG2 (% inhibition of colony forming ability)” value [3] was 80.7%, the “Reduced relative colony forming efficiency, A549 (% inhibition of colony forming ability)” value (A549 lung cell carcinoma) was 83.9% and the “Reduced relative colony forming efficiency, T-47D (% inhibition of colony forming ability)” value [4] was 90.83%. The “Reduced relative colony forming efficiency, 11596 (% inhibition of colony forming ability)” value [5] was 56.33%, the “Reduced relative colony forming efficiency, PC-3 (% inhibition of colony forming ability)” value [6] was 77.38% and the “Reduced relative colony forming efficiency, MIA PaCa-2 (% inhibition of colony forming ability)” value [7] was 70.22%. The “Reduced relative colony forming efficiency, HCT116 (% inhibition of colony forming ability)” value [8] was 78.47%, the “Reduced relative colony forming efficiency, T24 (% inhibition of colony forming ability)” value [9] was 77.43% and the “Reduced relative colony forming efficiency, MDA-MB-231 (% inhibition of colony forming ability)” value [10] was 54.9%. For the same molecule, the “Reduced relative colony forming efficiency, Hela S3 (% inhibition of colony forming ability)” value (Hela S3 cells [11]) was 61.41%.

With “G*CG*AAG*CAG*AGC*GAG*CAGC*C (antisense dG*dCdG*dAdAdG*dCdAdG*dAdGdC*dGdAdG*dCdAdGdC*dC) [AS-II-163-20]” the “Reduced relative colony forming efficiency, HepG2 (% inhibition of colony forming ability)” value [3] was 18.64%, the “Reduced relative colony forming efficiency, A549 (% inhibition of colony forming ability)” value (A549 lung cell carcinoma) was 37.13% and the “Reduced relative colony forming efficiency, T-47D (% inhibition of colony forming ability)” value [4] was 9.81%. The “Reduced relative colony forming efficiency, 11596 (% inhibition of colony forming ability)” value [5] was 32.08%, the “Reduced relative colony forming efficiency, PC-3 (% inhibition of colony forming ability)” value [6] was 7.14% and the “Reduced relative colony forming efficiency, MIA PaCa-2 (% inhibition of colony forming ability)” value [7] was 9.88%. For the same molecule, the “Reduced relative colony forming efficiency, HCT116 (% inhibition of colony forming ability)” value [8] was 29.05%, the “Reduced relative colony forming efficiency, T24 (% inhibition of colony forming ability)” value [9] was 5.49% and the “Reduced relative colony forming efficiency, MDA-MB-231 (% inhibition of colony forming ability)” value [10] was 22.73%. For the same molecule, the “Reduced relative colony forming efficiency, Hela S3 (% inhibition of colony forming ability)” value (Hela S3 cells [11]) was 45.8%.

For “CGGAGGGAGAGCATAGTGGA (antisense dC*dG*dG*dA*dG*dG*dG*dA*dG*dA*dG*dC*dA*dT*dA*dG*dT*dG*dG*dA) [AS-II-189-20]”, the “Reduced relative colony forming efficiency, HepG2 (% inhibition of colony forming ability)” value [3] was 57.86%, the “Reduced relative colony forming efficiency, A549 (% inhibition of colony forming ability)” value (A549 lung cell carcinoma) was 76.57% and the “Reduced relative colony forming efficiency, T-47D (% inhibition of colony forming ability)” value [4] was 96.63%. The “Reduced relative colony forming efficiency, 11596 (% inhibition of colony forming ability)” value [5] was 26.15%, the “Reduced relative colony forming efficiency, PC-3 (% inhibition of colony forming ability)” value [6] was 73.12% and the “Reduced relative colony forming efficiency, MIA PaCa-2 (% inhibition of colony forming ability)” value [7] was 70.52%. The “Reduced relative colony forming efficiency, HCT116 (% inhibition of colony forming ability)” value [8] was 86.78%, the “Reduced relative colony forming efficiency, T24 (% inhibition of colony forming ability)” value [9] was 18.57% and the “Reduced relative colony forming efficiency, MDA-MB-231 (% inhibition of colony forming ability)” value [10] was 39.86%. For the same molecule, the “Reduced relative colony forming efficiency, Hela S3 (% inhibition of colony forming ability)” value (Hela S3 cells [11]) was 76.67%.

— US20080311126A1, “Antisense Oligonucleotides Directed to Ribonucleotide Reducatase R2 and Uses Thereof in Combination Therapies for the Treatment of Cancer” (Genesense Technologies, Inc, priority 2004, published 2008)
